Where “and” joins values, the source holds several entries; their conditions need not be identical. Equal values may be shown once.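 A five-concentration, 48-hour dose response in 96-well plates underlies each endpoint, interpolated linearly between surrounding concentrations. GI50 marks 50% less growth. TGI: total growth inhibition.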
Tests used:
Test in all cases: inhibition of tumour cell growth, NCI panel, 48 h
COLO 205 colon = tested on: COLO 205 colon
HOP-92 NSCLC = tested on: HOP-92 NSCLC
SF-268 CNS = tested on: SF-268 CNS
SF-295 CNS = tested on: SF-295 CNS
SK-MEL-5 melanoma = tested on: SK-MEL-5 melanoma
SNB-19 CNS = tested on: SNB-19 CNS
SNB-75 CNS = tested on: SNB-75 CNS
T-47D breast = tested on: T-47D breast
UACC-257 melanoma = tested on: UACC-257 melanoma
HL-60(TB) leukemia = tested on: HL-60(TB) leukemia

Compound	GI50 (COLO 205 colon) [µM]	TGI (COLO 205 colon)	GI50 (HOP-92 NSCLC) [µM]	TGI (HOP-92 NSCLC)	GI50 (SF-268 CNS) [µM]	TGI (SF-268 CNS)	GI50 (SF-295 CNS) [µM]	TGI (SF-295 CNS)	GI50 (SK-MEL-5 melanoma) [µM]	TGI (SK-MEL-5 melanoma)	GI50 (SNB-19 CNS) [µM]	TGI (SNB-19 CNS)	GI50 (SNB-75 CNS) [µM]	TGI (SNB-75 CNS) [µM]	GI50 (T-47D breast) [µM]	TGI (T-47D breast) [µM]	GI50 (UACC-257 melanoma) [µM]	TGI (UACC-257 melanoma)	GI50 (HL-60(TB) leukemia) [µM]	TGI (HL-60(TB) leukemia)
ClCc1ccccc1Cn1cnc2c(Cl)ncnc21	3.89	> 100 µM	1.49	4.27 µM	3.24	10.9 µM	10.5	23.3 µM	1.4	2.88 µM	5.38	> 100 µM	2.86	11.1	17.9	62	10.7	26.6 µM	–	–
O=C1C(=O)c2ccccc2C(O)=C1CCCc1ccc(C2CCCCC2)cc1	7.02	34.8 µM	1.71	24 µM	3.8	49.6 µM	1.89	6.36 µM	1.52	13.9 µM	5.66	> 100 µM	5.17	91	3.2	35.7	6.5	> 100 µM	2.94	28.5 µM
O=c1oc2cc(OC/C(=N/O)c3ccc(F)cc3)ccc2c2ccccc12	25.3	61.4 µM	23.6	52.8 µM	21.1	42.3 µM	18.4	41.5 µM	20.9	36.3 µM	21.8	46.3 µM	23.7	43.9	35.4	> 100	22.9	39.4 µM	–	–
N#C/C(=N\Nc1ccccc1)C(=O)Nc1cc(-c2ccccc2)nn1-c1ccccc1	2.17	4.77 µM	0.181	2.58 µM	3.85	> 100 µM	3.14	> 100 µM	1.54	4.86 µM	3.6	> 100 µM	–	–	2.03	8.11	2.47	9.93 µM	2.94	22.1 µM
COC(=O)C(=O)C(C(=O)C(=O)Nc1ccccc1OC)c1nc2ccc([N+](=O)[O-])cc2[nH]c1=O (centres undefined)	–	–	–	> 100 µM	–	> 100 µM	–	> 100 µM	–	> 100 µM	–	> 100 µM	–	> 100	–	> 100	–	> 100 µM	–	> 100 µM
CC(=O)NC(CSC1=C2NC(=O)\C=C/C=C/C=C\C(C)C(O)CC(=O)/C(C)=C\CC(O)/C=C/C(C)C(O)C(C)C=C(C)C(=O)c3c(O)c(C)cc(c3C1=O)C2=O)C(=O)O (centres undefined)	–	79.6 µM	–	> 100 µM	–	–	–	> 100 µM	–	> 100 µM	–	> 100 µM	–	> 100	–	> 100	–	> 100 µM	–	73.2 µM
CO[C@H]1C[C@](C)(O)Cc2cc3c(c(O)c21)C(=O)c1c(O)cc2c(c1C3=O)O[C@@H]1O[C@@]2(C)[C@H](O)[C@@H](N(C)C)[C@@H]1O	1.46	2.97 µM and 8.57 µM	1.81	7.76 µM and 2.96 µM	1.52	7.01 µM and 11.9 µM	0.513	1.96 µM and 2.14 µM	–	3.17 µM and 10.2 µM	0.578	5.95 µM and 7.5 µM	–	–	–	17.4	3.78	7.55 µM and 31.6 µM	0.159	0.797 µM and 1.64 µM
O=C(C#Cc1ccccc1)C1=Cc2ccccc2OC1	–	3.93 µM	–	–	–	12.5 µM	–	48.3 µM	–	4.89 µM	–	29.6 µM	–	13.3	–	> 61.1	–	8.23 µM	–	> 100 µM
COc1ccc(/C(C#N)=C/c2cc(OC)c(OC)c(OC)c2)cc1	20.1	64.8 µM	–	–	39.6	> 100 µM	15	41.9 µM	10.7	28.7 µM	28	> 100 µM	11.6	87.7	17	67.6	31	> 100 µM	13.2	56.5 µM
COC1=CC(c2ccc[nH]2)=N/C1=C\c1[nH]c(C)c(CC(=O)OCc2ccccc2)c1C	0.24	1.27 µM	0.244	0.81 µM	0.358	2.56 µM	0.252	1.1 µM	–	–	0.671	12.4 µM	0.217	0.777	0.251	1.08	0.605	2.24 µM	0.537	2.44 µM
CC(=O)OC12c3ccccc3-c3ccccc3C1C(C(=O)O)C2C(=O)O (centres undefined)	–	> 10 µM	–	> 10 µM	–	> 10 µM	–	> 10 µM	–	> 10 µM	–	> 10 µM	–	–	–	> 10	–	> 10 µM	–	> 10 µM
CCCCCC[C@@H](C)NC(=O)c1ccc(Nc2nc3ccccc3c3occc23)cc1	3.08	–	1.99	7.91 µM	5.73	> 100 µM	4.39	> 100 µM	1.66	4.01 µM	5.54	> 100 µM	2.25	6.38	–	–	2.19	5.66 µM	5.14	> 100 µM

From PubChem BioAssay (NCI)
